# Measured values from patent US20260001928A1 (CORTERIA PHARMACEUTICALS, priority 2022, published 2026).
# *1 amine or outer side, *2 acyl side, *3 side chain or, on linkers, in order; H or OH if unused. Where a SMILES comes first, the peptide text is derived from it. Side-chain parts run from the residue outwards. [ ]: non-standard residue; d: D form. The star is where a group is joined. C18 diacid = O=C(O)CCCCCCCCCCCCCCCCC(=O)*; γGlu = O=C(O)[C@H](CCC(=O)[*:2])N[*:1]; αMeL = CC(C)C[C@](C)(N)C(=O)O; Api = NC1(C(=O)O)CCNCC1; Abu = CC[C@H](N)C(=O)O; Dap = NC[C@H](N)C(=O)O; Pentanoyl = CCCCC(=O)*; AEEA = NCCOCCOCC(=O)O
# Legend:
# CFR1R receptor = target: T1, CFR1R receptor (Homo sapiens, UniProt P34998); assay: Activity at anti-target CFR1R receptor, cAMP assay in CRF1R-overexpression CHO-K1 cells; assay type: cell-based; conditions: 100% = Sauvagine at 100 nM; for EC50: cAMP
# T1 construct: host or cells: CHO-K1 (clone 2)
# T1 sequence (P34998 24-415): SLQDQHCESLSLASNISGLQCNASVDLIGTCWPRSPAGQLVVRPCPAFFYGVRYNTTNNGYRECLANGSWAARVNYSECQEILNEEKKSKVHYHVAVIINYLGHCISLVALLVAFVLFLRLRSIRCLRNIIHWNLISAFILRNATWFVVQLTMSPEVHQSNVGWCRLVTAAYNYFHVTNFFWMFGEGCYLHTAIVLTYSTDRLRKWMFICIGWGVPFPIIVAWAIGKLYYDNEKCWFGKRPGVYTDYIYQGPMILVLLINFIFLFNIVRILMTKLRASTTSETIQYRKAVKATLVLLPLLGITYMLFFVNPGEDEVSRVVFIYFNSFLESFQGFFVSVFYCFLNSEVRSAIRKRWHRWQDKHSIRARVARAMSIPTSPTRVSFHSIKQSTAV
# Procedure, shortened: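 Run as for the TeloHAEC line, except the full-activation control well received Sauvagine (100 nM) and final density was 4000 cells/well. Cells from clone 2 came from frozen aliquots of near-confluent cultures.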
# human CRF2a receptor = target: T2, human CRF2a receptor (Homo sapiens, UniProt Q13324); assay: Activity at human CRF2a receptor, cAMP functional assay in TeloHEAC cells; assay type: cell-based; conditions: TeloHEAC cells stably expressing human CRF2a receptor, relative to urocortin 2 (100 nM = 100%)
# T2 construct: expressed in transfected cells; host or cells: TeloHEAC cells
# T2 sequence (Q13324 1-411): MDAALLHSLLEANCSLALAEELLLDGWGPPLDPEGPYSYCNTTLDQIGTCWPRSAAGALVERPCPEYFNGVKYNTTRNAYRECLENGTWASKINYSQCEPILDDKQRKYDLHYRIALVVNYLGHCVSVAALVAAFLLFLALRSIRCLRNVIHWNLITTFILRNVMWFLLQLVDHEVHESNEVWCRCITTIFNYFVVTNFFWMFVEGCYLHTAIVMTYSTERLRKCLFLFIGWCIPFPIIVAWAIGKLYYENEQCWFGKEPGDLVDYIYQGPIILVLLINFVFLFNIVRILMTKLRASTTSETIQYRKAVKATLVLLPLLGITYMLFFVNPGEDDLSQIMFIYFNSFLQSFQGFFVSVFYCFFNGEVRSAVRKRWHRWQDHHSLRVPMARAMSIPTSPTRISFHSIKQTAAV
# Procedure, shortened: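 TeloHEAC cells stably expressing human CRF2a (10000 cells/well) were treated with 16-point 1:2 compound dilutions in HBSS/20 mM HEPES with IBMX for 30 min at 37° C. cAMP was read by HTRF (665/620 nm ratio). EC50 was the concentration giving 50% activation, with 100 nM urocortin 2 set as 100%.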
SMILES,Emax (% I) (CFR1R receptor),EC50 (CFR1R receptor),EC50 (human CRF2a receptor)
CCCCC(=O)N[C@H](C(=O)N[C@@H](CC(C)C)C(=O)N[C@@H](CO)C(=O)N[C@@H](CC(C)C)C(=O)N[C@@H](CC(=O)O)C(=O)N[C@@H](C(=O)N1CCC[C@H]1C(=O)N[C@H](C(=O)N[C@@H](CCCCN)C(=O)N[C@@](C)(CC(C)C)C(=O)N[C@@H](CCCCNC(=O)COCCOCCNC(=O)COCCOCCNC(=O)CC[C@H](NC(=O)CCCCCCCCCCCCCCCCC(=O)O)C(=O)O)C(=O)N[C@@H](CCCCN)C(=O)N[C@H](C(=O)N[C@@H](CC(C)C)C(=O)N[C@@H](CC(C)C)C(=O)N[C@@H](CCC(=O)O)C(=O)N[C@@H](CCC(N)=O)C(=O)N[C@@H](CCC(=O)O)C(=O)N[C@@H](CCCCN)C(=O)N[C@@H](CCC(N)=O)C(=O)N[C@@H](CCCCN)C(=O)N[C@@H](CCCCN)C(=O)N[C@@H](CCC(N)=O)C(=O)N[C@@H](CCCNC(=N)N)C(=O)N[C@@H](CCC(=O)O)C(=O)N[C@@H](CCC(N)=O)C(=O)N[C@@H](C)C(=O)N[C@@H](CCC(=O)O)C(=O)N[C@H](C(=O)N[C@@H](CC(N)=O)C(=O)N[C@H](C(=O)N[C@@H](CCC(N)=O)C(=O)N[C@H](C(=O)N[C@@H](CC(C)C)C(=O)N[C@@H](C)C(=O)N[C@@H](CCC(N)=O)C(=O)N[C@H](C(N)=O)C(C)C)[C@@H](C)CC)C(C)C)[C@@H](C)O)[C@@H](C)CC)[C@@H](C)CC)C(C)C)C(C)C [compound 124] (Pentanoyl-VLSLD[dV]PIK[αMeL]K([AEEA-AEEA-γGlu-C18 diacid])KILLEQEKQKKQREQAETNVQILAQV-NH2),14 % I,> 250 nM,0.38 nM
CC[C@H](C)[C@H](NC(C)=O)C(=O)N[C@H](C(=O)N[C@@H](CC(C)C)C(=O)N[C@@H](CO)C(=O)N[C@@H](CC(C)C)C(=O)N[C@@H](CC(=O)O)C(=O)N[C@@H](C(=O)N1CCC[C@H]1C(=O)N[C@H](C(=O)N[C@@H](CCCCN)C(=O)N[C@@H](CC(C)C)C(=O)N[C@@H](CCCCNC(=O)CC[C@H](NC(=O)CCCCCCCCCCCCCCCCC(=O)O)C(=O)O)C(=O)N[C@@H](CCCCN)C(=O)N[C@H](C(=O)N[C@@H](CC(C)C)C(=O)N[C@@H](CC(C)C)C(=O)N[C@@H](CCC(=O)O)C(=O)N[C@@H](CCC(N)=O)C(=O)N[C@@H](CCC(=O)O)C(=O)N[C@@H](CCCCN)C(=O)N[C@@H](CCC(N)=O)C(=O)N[C@@H](CCCCN)C(=O)N[C@@H](CCCCN)C(=O)N[C@@H](CCC(N)=O)C(=O)N[C@@H](CCCNC(=N)N)C(=O)N[C@@H](CCC(=O)O)C(=O)N[C@@H](CCC(N)=O)C(=O)N[C@@H](C)C(=O)N[C@@H](CCC(=O)O)C(=O)N[C@H](C(=O)N[C@@H](CC(N)=O)C(=O)N[C@@H](C)C(=O)N[C@@H](CCC(N)=O)C(=O)N[C@H](C(=O)N[C@@H](CC(C)C)C(=O)N[C@@H](C)C(=O)N[C@@H](CCC(N)=O)C(=O)N[C@H](C(N)=O)C(C)C)[C@@H](C)CC)[C@@H](C)O)[C@@H](C)CC)[C@@H](C)CC)C(C)C)C(C)C [compound 126] (Ac-IVLSLD[dV]PIKLK([γGlu-C18 diacid])KILLEQEKQKKQREQAETNAQILAQV-NH2),20 % I,> 250 nM,0.05 nM
CC[C@H](NC(=O)[C@H](CC(N)=O)NC(=O)[C@@H](NC(=O)[C@H](CCC(=O)O)NC(=O)[C@H](C)NC(=O)[C@H](CCC(N)=O)NC(=O)[C@H](CCC(=O)O)NC(=O)[C@H](CCCNC(=N)N)NC(=O)[C@H](CCC(N)=O)NC(=O)[C@H](CCCCN)NC(=O)[C@H](CCCCN)NC(=O)[C@H](CCC(N)=O)NC(=O)[C@H](CCCCN)NC(=O)[C@H](CCC(=O)O)NC(=O)[C@H](CCC(N)=O)NC(=O)[C@H](CCC(=O)O)NC(=O)[C@H](CC(C)C)NC(=O)[C@H](CC(C)C)NC(=O)[C@@H](NC(=O)[C@H](CCCCN)NC(=O)[C@H](CCCCNC(=O)CC[C@H](NC(=O)CCCCCCCCCCCCCCCCC(=O)O)C(=O)O)NC(=O)[C@H](CC(C)C)NC(=O)[C@H](CCCCN)NC(=O)[C@@H](NC(=O)[C@@H]1CCCN1C(=O)[C@H](NC(=O)[C@H](CC(=O)O)NC(=O)[C@H](CC(C)C)NC(=O)[C@H](CO)NC(=O)[C@H](CC(C)C)NC(=O)[C@@H](NC(=O)[C@@H](NC(C)=O)[C@@H](C)CC)C(C)C)C(C)C)[C@@H](C)CC)[C@@H](C)CC)[C@@H](C)O)C(=O)N[C@@H](CCC(N)=O)C(=O)N[C@H](C(=O)N[C@@H](CC(C)C)C(=O)N[C@@H](C)C(=O)N[C@@H](CCC(N)=O)C(=O)N[C@H](C(N)=O)C(C)C)[C@@H](C)CC [compound 127] (Ac-IVLSLD[dV]PIKLK([γGlu-C18 diacid])KILLEQEKQKKQREQAETN[Abu]QILAQV-NH2),11 % I,> 250 nM,0.08 nM

# Other lines, results leading:
Emax (% I) (CFR1R receptor),EC50 (CFR1R receptor),EC50 (human CRF2a receptor),SMILES
10 % I,> 250 nM,0.17 nM,CC[C@H](C)[C@H](NC(C)=O)C(=O)N[C@H](C(=O)N[C@@H](CC(C)C)C(=O)N[C@@H](CO)C(=O)N[C@@H](CC(C)C)C(=O)N[C@@H](CC(=O)O)C(=O)N[C@@H](C(=O)N1CCC[C@H]1C(=O)N[C@H](C(=O)N[C@@H](CCCCN)C(=O)N[C@@H](CC(C)C)C(=O)N[C@@H](CCCCNC(=O)CC[C@H](NC(=O)CCCCCCCCCCCCCCCCC(=O)O)C(=O)O)C(=O)N[C@@H](CCCCN)C(=O)N[C@H](C(=O)N[C@@H](CC(C)C)C(=O)N[C@@H](CC(C)C)C(=O)N[C@@H](CCC(=O)O)C(=O)N[C@@H](CCC(N)=O)C(=O)N[C@@H](CCC(=O)O)C(=O)N[C@@H](CCCCN)C(=O)N[C@@H](CCC(N)=O)C(=O)N[C@@H](CCCCN)C(=O)N[C@@H](CCCCN)C(=O)N[C@@H](CCC(N)=O)C(=O)N[C@@H](CCCNC(=N)N)C(=O)N[C@@H](CCC(=O)O)C(=O)N[C@@H](CCC(N)=O)C(=O)N[C@@H](C)C(=O)N[C@@H](CCC(=O)O)C(=O)N[C@H](C(=O)N[C@@H](CC(N)=O)C(=O)N[C@@H](CN)C(=O)N[C@@H](CCC(N)=O)C(=O)N[C@H](C(=O)N[C@@H](CC(C)C)C(=O)N[C@@H](C)C(=O)N[C@@H](CCC(N)=O)C(=O)N[C@H](C(N)=O)C(C)C)[C@@H](C)CC)[C@@H](C)O)[C@@H](C)CC)[C@@H](C)CC)C(C)C)C(C)C [compound 128] (Ac-IVLSLD[dV]PIKLK([γGlu-C18 diacid])KILLEQEKQKKQREQAETN[Dap]QILAQV-NH2)
39 % I,–,0.14 nM,CC[C@H](C)[C@H](NC(C)=O)C(=O)N[C@H](C(=O)N[C@@H](CC(C)C)C(=O)N[C@@H](CO)C(=O)N[C@@H](CC(C)C)C(=O)N[C@@H](CC(=O)O)C(=O)N[C@@H](C(=O)N1CCC[C@H]1C(=O)N[C@H](C(=O)N[C@@H](CCCCN)C(=O)N[C@@H](CC(C)C)C(=O)N[C@@H](CCCCNC(=O)CC[C@H](NC(=O)CCCCCCCCCCCCCCCCC(=O)O)C(=O)O)C(=O)N[C@@H](CCCCN)C(=O)N[C@H](C(=O)N[C@@H](CC(C)C)C(=O)N[C@@H](CC(C)C)C(=O)N[C@@H](CCC(=O)O)C(=O)N[C@@H](CCC(N)=O)C(=O)N[C@@H](CCC(=O)O)C(=O)N[C@@H](CCCCN)C(=O)N[C@@H](CCC(N)=O)C(=O)N[C@@H](CCCCN)C(=O)N[C@@H](CCCCN)C(=O)N[C@@H](CCC(N)=O)C(=O)N[C@@H](CCCNC(=N)N)C(=O)N[C@@H](CCC(=O)O)C(=O)N[C@@H](CCC(N)=O)C(=O)N[C@@H](C)C(=O)N[C@@H](CCC(=O)O)C(=O)N[C@H](C(=O)N[C@@H](CC(N)=O)C(=O)NC1(C(=O)N[C@@H](CCC(N)=O)C(=O)N[C@H](C(=O)N[C@@H](CC(C)C)C(=O)N[C@@H](C)C(=O)N[C@@H](CCC(N)=O)C(=O)N[C@H](C(N)=O)C(C)C)[C@@H](C)CC)CCNCC1)[C@@H](C)O)[C@@H](C)CC)[C@@H](C)CC)C(C)C)C(C)C [compound 129] (Ac-IVLSLD[dV]PIKLK([γGlu-C18 diacid])KILLEQEKQKKQREQAETN[Api]QILAQV-NH2)
